Results published in patent US20260355318A1, “MOLECULAR MACHINES FOR TREATMENT OF CANCER, FUNGAL INFECTIONS, OR BACTERIAL INFECTIONS” (priority 2022, published 2026).

Legend:
[1] = tested on: E. coli; assay: Electron microscopy (TEM, SEM) of E. coli; type: cell-based, Escherichia coli; conditions: 0.5×MIC, 43.8 J cm^−2
Procedure: E. coli was cultured to mid-log phase in MHB media. Cells were collected and resuspended in PBS (1×) to an OD600 of ≈0.05. […] Cells were then irradiated for 5 min at 146 mW cm-2 (43.8 J cm^−2) after which cells were fixed with Karnovsky's fixative (Carlson et al., 2003), and post-fixed with 1% osmium, and dehydrated with a series of ethanol washes. For TEM, samples were embedded in epoxy resin (PolyBed 812; Polyscienses, Inc., Warrington, PA, United States) after dehydration in a graduated 50-100% ethanol concentration series of washes. Ultrathin sections (65 nm) were cut using a Leica EM UC7 ultramicrotome (Leica Microsystems, Wetzlar, Germany) and post-stained with uranyl acetate and lead citrate. Specimens were observed using a JEOL JEM2100 TEM ([…], Japan) operating at an accelerating voltage of 80 kV. For SEM, following ethanol dehydration samples were critical point dried using a Leica EM CPD300 (Leica Microsystems, Wetzlar, Germany), sputter-coated with 10 nm of gold, and imaged with an FEI Apreo SEM (FEI Apreo, ThermoFisher Scientific, Waltham, MA) using a secondary electron detector.

[2] = tested on: human embryonic kidney cells (HEK); assay: Toxicity to HEK cells (CellTiter-Glo); type: cell-based; conditions: HEK293, 5 min, 405 nm light 146 mW cm^−2, 5 min, read-out: IC50 (HEK viability)
Procedure: (§1) Biocompatibility of MM with primary NHDF and HEK293T cells was assessed using the CellTiter-Glo® Luminescent Cell Viability Assay (Promega), per the manufacturer's instructions. The MM concentrations that reduced cell viability by 50% (IC50) were identified and the therapeutic index was calculated as the ratio between the IC50 and the MIC at a light intensity of 146 mW cm^−2.

[3] = tested on: normal human dermal fibroblasts (NHDFs); assay: Toxicity to NHDF (CellTiter-Glo); type: cell-based; conditions: 5 min, 405 nm light 146 mW cm^−2, 5 min, read-out: IC50 (NHDF viability)
Procedure: as §1

[4] = tested on: C. albicans; assay: MIC, visible-light-activated MMs and conventional antifungals, C. albicans; type: cell-based, Candida albicans (ATCC 18804); conditions: Candida albicans, read-out: MIC of MM
Outline: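 C. albicans suspensions (~10^4 CFU/mL in saline, CLSI) incubated 30 min in the dark with MMs, then irradiated with stirring at 405 nm, 292 mW cm^−2 for 5 min (87.6 J cm^−2). Cells then grown in MOPS-buffered RPMI 1640 (pH 7.0) at 30 °C for 48 h; MIC is lowest concentration with no visible growth; conventional antifungals tested likewise.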

[5] = tested on: persister cells of E. coli; assay: Persister eradication, E. coli; type: cell-based, Escherichia coli; conditions: 1×MIC, 405 nm
Procedure: Persister cells of E. coli were prepared by adding ampicillin (100 μg mL^−1) to exponential-phase cells (OD600 of ≈0.8) followed by continuous agitation for another 3 b, as previously described (Keren et al., 2004). In the case of S. aureus, almost all stationary-phase are considered to be persistent (Keren et al., 2004). S. aureus cells were grown at 37 ° C and 220 rpm in LB broth to an OD600 of 0.3. Cells were then diluted 1:1000 in 25 mL LB and grown for 16 h at 37 ° C and 220 rpm in 250 mL flasks. […] At specified time points (0, 1, 2, 3, 4 and 5, 10 and 15 min), 50-μL aliquots were removed, serially diluted and spot-plated onto LB agar plates to determine colony-forming units per mL (CFU mL^−1). Only dilutions that yielded 10-100 colonies were counted. Results were expressed as log (N/NO) whereby N is the CFU mL^−1 at each irradiation time point and NO is the initial CFU mL^−1 of the corresponding sample. […].

SMILES | cell morphology (TEM) [1] | IC50 [2] | IC50 [3] | MIC [4] | time to reduce persister cells to limit of detection [5]
C[C@@H]1Cc2ccc3ccccc3c2/C1=C1\c2ccccc2Sc2cc(NCCN)ccc21 (racemic) [MM 6, N^1-(9-(2-methyl-2,3-dihydro-1H-cyclopenta[a]naphthalen-1-ylidene)-9H-thioxanthen-3-yl)ethane-1,2-diamine] | substantial changes in cell morphology | 5 µM | 10 µM | ≤ 5 µM | 5 min
C[C@@H]1Cc2ccc3ccccc3c2/C1=C1\c2ccccc2Sc2cc(NCCN(C)C)ccc21 [MM 1, N^1N^1-dimethyl-N^2-(9-(2-methyl-2,3-dihydro-1H-cyclopenta[a]naphthalen-1-ylidene)-9H-thioxanthen-3-yl) ethane-1,2-diamine] | substantial changes in cell morphology | 5 µM | 5 µM | ≤ 5 µM | 10 min
